{"source": "patent US12239661B2", "about": "“Methods and compositions for treating undesired implanted tissue filler” (priority 2019, dated 2025)", "key": {"[1]": {"test": "Electron microscopy (SEM) of filler particles isolated from test sites (Example 1)", "method": "EM analysis is used, for example, to analyze morphology and the particle size distribution of Calcium Hydroxyapatite (CaHA) particles in tissue integrated particles. […] The biopsy material underwent an enzymatic digestion with protease (Trypsin without EDTA, for […], at 37° C.) after fixation in 10% neutral buffered formalin (NBF). Digested sample was centrifuged, and microscopy samples of the supernatant as well as the pellet were prepared and subjected to EM analysis at room temperature.\nSamples were analyzed using a Scanning Electron Microscope (SEM) (Phenom Pure G3, ThermoFisher, with Phenom Pro Suite application system, ImageJ (version 1.51j8) software and OriginPro 2018G (64-bit) SR1 b9.5.1.195 software for analysis and data processing). To evaluate the changes in CaHA microparticle characteristics the samples were analyzed with the Scanning Electron Microscopy (SEM) and evaluated for morphology as well as for the size and shape of the material. Statistical analysis of particle size distribution (PSD) would show changes of the material.\nSEM images were taken from three fractions per sample to determine the particle- and volume-weighted size distributions. Up to 400 SEM images per fraction were taken at a magnification of ×500 and further processed by automated image analyzing software ImageJ (version 1.51j8). Image processing took place for every fraction image to determine selected parameters. e.g., Feret diameter and aspect ratio (D-ratio)."}, "[2]": {"test": "Semi-quantitative histopathologic analysis of injection sites (Example 1)", "method": "After complete fixation in 10% NBF and micro-CT analysis, the 30 test sites and the TO site, were cut into five blocks. The blocks were decalcified for 48 hours with formic acid and then dehydrated in alcohol solutions of increasing concentration, cleared in xylene and embedded in paraffin. […] Finally, the blocks were placed in HCl for 15 min and the blocks could then be cut to obtain slides for analysis.\nThe section was stained with safranin-hematoxylin-cosin (SHE). The same procedure was used for the preparation of the TO site used for structural characterization and evaluation of the degradation.\nQualitative and semi-quantitative histopathologic evaluation of the local tissue effects and the inflammatory response at injection sites was conducted according using standard methods.\nEvaluation of local tissue effects was based on the qualitative and semi-quantitative histopathologic evaluation: mean score comparison of the semi-quantitative parameters and comparison of the qualitative histopathologic findings."}, "[3]": {"method": "A total of 10 CT-scans were performed at 30 min, 1 h 15 min, 1 h 30 min, 1 h 45 min, 2 h, 3 h, 4 h, 8 h, 1 day (24 h) and 7 days after injections of the dermal filler.\nThe X-ray computed tomography (CT) acquisitions were performed with the Computed Tomography Scanner BrightSpeed 16 (General Electric). In order to measure the volume, the mean density and visualize the 3D (Three-dimensional) shape of the dermal fillers SC injected, in vivo CT-scans were performed 1 h 15 (±5 min), 1 h 30 (±10 min), 1 h 45 (±10 min), 2 h (±10 min), 3 h (±15 min), 4 h (±15 min), 8 h (±30 min), 24 h (Day 1+1 h) and 7 days after the test item injections.\nFor each CT-scan, the animal was positioned in dorsal recumbency (ventral images) and acquisitions were centered on the injection sites. The parameters of the CT-scan are described in Table 4.\nThe CT acquisitions were analyzed with Avizo version 9.2.0 software. […] To achieve this goal, the evolution of the following parameters was observed over time: • the volume of each nodule, • the mean density of each nodule, and • the 3D shape of each nodule by visualization on the 3D model of each nodule at each time point. Segmentation\nAn image segmentation was performed on each CT acquisition using standard reconstruction. First, a manual pre-segmentation was performed around each nodule in order to roughly isolate the voxels corresponding to dermal filler. An interpolation procedure was performed to obtain a contour for each slice and define a Region of Interest (ROI). Second, an automatic segmentation was applied on the ROI previously defined using a global grey level thresholding procedure. The relevant threshold allowing the isolation of the dermal filler products was defined on the basis of the Hounsfield Unit (HU) histogram, following the Otsu method to accurately define the ROI. […] Then, a 3D model of these selected voxels was obtained allowing calculation of the total volume (in mm^3) of each nodule of non-degraded dermal filler.\nThe volume (in mm^3) of the ROI corresponding to each nodule of dermal filler and the mean density (in HU) of each nodule were calculated at each time point.\nIn order to assess the evolution over time of the elimination of SC-injected dermal filler, the mean volume±standard deviation (SD) and the average of mean density±SD were calculated for each dermal filler injection of the right and left flank separately at each different time points. The evolution of the mean volumes, the mean volume variations and the average of the mean densities of each dermal filler were calculated."}, "[4]": {"details": "day 7 after injection; 1.5 mL into 0.5 mL filler site; vs untreated filler"}, "[5]": {"details": "particle size distribution by EM, day 7"}}}
{"smiles": "O=S([O-])([O-])=S.[Na+].[Na+]", "note": "[STS, sodium thiosulfate]", "values": [{"measurement": "particle degradation (change in particle size or surfaces) by EM", "setting": "[1]; day 7", "result": "no indication of particle degradation"}, {"measurement": "Mean diameter", "setting": "[1]; filler particles by EM, seven days after filler injection", "result": 29.2, "unit": "μm"}, {"measurement": "25-45 μm", "setting": "[1]; [5]", "result": 93.1, "unit": "wt %"}, {"measurement": "<25 μm", "setting": "[1]; [5]", "result": 1.7, "unit": "wt %"}, {"measurement": ">45 μm", "setting": "[1]; [5]", "result": 5.2, "unit": "wt %"}, {"measurement": "D-ratio", "setting": "[1]; shape index, 1=round, EM, day 7", "result": 0.8}, {"measurement": "appearance of filler in histology slices", "setting": "[2]; SHE stain, vs Saline treatment or untreated filler", "result": "more dispersed (diluted) appearance of filler"}, {"measurement": "AM Degradation", "setting": "[2]; mean score, day 7", "result": 1.8}, {"measurement": "Cell or Tissue Degeneration", "setting": "[2]; mean score, day 7", "result": 0.0}, {"measurement": "Encapsulation", "setting": "[2]; mean score, day 7", "result": 0.0}, {"measurement": "Fatty Infiltrate", "setting": "[2]; mean score, day 7", "result": 0.0}, {"measurement": "Fibrin", "setting": "[2]; mean score, day 7", "result": 2.4}, {"measurement": "Fibroblasts", "setting": "[2]; mean score, day 7", "result": 2.0}, {"measurement": "Fibrosis", "setting": "[2]; mean score, day 7", "result": 0.0}, {"measurement": "Giant Cells", "setting": "[2]; mean score, day 7", "result": 1.4}, {"measurement": "Hemorrhage", "setting": "[2]; mean score, day 7", "result": 2.1}, {"measurement": "Lymphocytes", "setting": "[2]; mean score, day 7", "result": 1.1}, {"measurement": "Macrophages", "setting": "[2]; mean score, day 7", "result": 2.0}, {"measurement": "Necrosis", "setting": "[2]; mean score, day 7", "result": 1.2}, {"measurement": "Neovascularization", "setting": "[2]; mean score, day 7", "result": 1.0}, {"measurement": "Plasma Cells", "setting": "[2]; mean score, day 7", "result": 0.0}, {"measurement": "Polymorphonuclear Cells", "setting": "[2]; mean score, day 7", "result": 1.1}, {"measurement": "Tissue Ingrowth", "setting": "[2]; mean score, day 7", "result": 2.5}, {"measurement": "Tissue Integration", "setting": "[2]; mean score, day 7", "result": 2.5}, {"measurement": "fibrin content, hemorrhage and necrosis by histopathology", "setting": "[2]; seven days", "result": "increased fibrin content, hemorrhage and necrosis"}, {"measurement": "inflammation by histopathology", "setting": "[2]; seven days", "result": "decreased inflammation (macrophages, giant cells)"}, {"measurement": "amount of filler by histopathology", "setting": "[2]; seven days, vs Saline treatment and untreated injections", "result": "decreased amount of filler"}, {"measurement": "Radiesse+STS high volume (HU 250-infinity) vs untreated filler by CT", "setting": "[3]; 90 minutes after injection", "result": "very modest temporary increase"}, {"measurement": "Radiesse+STS high density vs untreated filler by CT", "setting": "[3]; day 7", "result": "strong trend for a decrease"}, {"measurement": "filler volume×density/1000 (filler content) in Radiesse+STS high fraction", "setting": "[3]; day 7", "result": "significant decrease of filler"}, {"measurement": "highest HU values of voxel frequency trace", "setting": "[3]; day 7, untreated filler 450-570 HU", "result": "250-400 HU"}, {"measurement": "number of voxels at 750 HU", "setting": "[3]; day 7, untreated filler c.a. 70", "result": "~40", "unit": "voxels"}, {"measurement": "Radiesse-STS (low) volume (0 to 250 HU) by CT", "setting": "[3]; diluted/dispersed fraction over time", "result": "increases with the time between 120 and 240 minutes"}, {"measurement": "effect on dermal filler volume as measured by micro-CT", "setting": "[4]", "result": "≤ 10", "unit": "%"}]}
